Reference: patent US6506799B1, “Methods of treating cardiovascular diseases, dyslipidemia, dyslipoproteinemia, and hypertension with ether compounds” (Esperion Therapeutics, Inc., priority 1999, dated 2003)

What was measured:
primary rat hepatocytes = assay: Synthesis of non-saponified and saponified lipids (14C-acetate incorporation) in hepatocytes; type: cell-based; conditions: 100 μM; 14C-acetate 2 hr; vs no compound control
Description: A male Sprague-Dawley rat was anesthetized by administration of sodium pentobarbitol by intraparitoneal injection at 50 mg/kg. In situ perfusion of the liver was performed as follows. […] To digest the liver, DSC solution (6.7 mM KCl, 143 mM NaCl, 9.2 mM Na HEPES, 5 mM CaCl2-2H2O, 1.7 mM Fructose, 0.029 mM Phenol red, 0.2% BSA, 100 U/ml collagenase Type I, 93 U/ml Hyaluronidase, 160 BAEE/ml trypsin inhibitor, pH 7.5) was perfused through the liver at a flow rate of 30 ml/min for 6 minutes at a temperature of 37° C. After digestion, cells were dispersed in a solution of DMEM-(DMEM containing 2 mM GlutMax-1, 0.2% BSA, 5% FBS, 12 nM insulin, 1.2 μM hydrocortisone) to stop the digestion process. The crude cell suspension was filtered through three layers of stainless steel mesh with pore sizes of 250, 106, and 75 μm respectively. Filtered cells were centrifuged at 50×g for two minutes and the supernatant discarded. The resulting cell pellet was resuspended in DMEM and centrifuged again. This final cell pellet was resuspended in DMEM+HS solution (DMEM containing 2 mM GlutMax-1, 20 nM delta-aminolevulinic acid, 17.4 mM MEM non-essential amino acids, 20% FBS, 12 nM insulin, 1.2 µM hydrocortisone) and plated to form monolayer cultures at a density of 100×10^3 cells/cm^2 on collagen coated culture dishes. Four hours after initial plating, media was changed to DMEM+(DMEM containing 2 mM GlutMax-1, 20 nM delta-aminolevulinic acid, 17.4 mM MEM non-essential amino acids, 10% FBS, 12 nM insulin, 1.2 μM hydrocortisone) and remained on cells overnight.
To test the effect of illustrative compounds of the invention on synthesis rates of non-saponified and saponified lipids, the monolayer cultures were exposed to 1 μM of lovastatin or 100 μM Compound A, B, D, E or F in DMEM+ containing 1 μCi/ml ^14C-acetate. Control cells were exposed to the same media lacking lovastatin or the test compounds. All cells were exposed to 0.1% DMSO. Metabolic labeling with ^14C-acetate continued for 2 hr at 37° C. After labeling, cells were washed twice with 1 ml of PBS followed by lysing in 1 ml of deionized water. Cells were scraped from the dishes, transferred to glass tubes and sonicated. 2.5 ml of 2:1 chloroform/methanol mixture was added followed by 1.5 ml of Phosphate Buffered Saline (PBS). To correct for extraction efficiency in the upcoming extractions, 3000 dpm of ^3H-cholesterol was added to each tube. Tubes were shaken for 30 min. to extract lipids into the organic phase followed by centrifugation for 10 minutes at 1000×g to separate the organic and aqueous phases. The lower organic phase containing total lipids was removed and placed in a new tube. The organic solution was evaporated under N2. […]

[1] = system: chow fed male Sprague-Dawley rats; assay: Serum lipids, apolipoproteins and weight gain in chow fed male Sprague-Dawley rats after seven days of treatment; type: in vivo, rat; conditions: 100 mg/kg/day oral gavage, 7 days; normalized against vehicle control
Description: Illustrative compounds of the invention were administered daily at a dose of 100 mg/kg to chow fed male Sprague-Dawley rats for seven days in the morning by oral gavage in 1.5% carboxymethylcellulose/0.2% Tween-20 (dosing vehicle). Animals were weighed daily. Animals were allowed free access to rodent chow and water throughout the study. After the seventh dose, animals were sacrificed in the evening and blood serum was assayed for lipoprotein cholesterol profiles, serum triglycerides, total cholesterol VLDL, LDL, and HDL cholesterol, and the ratio of HDL cholesterol to that of VLDL plus LDL cholesterol, apolipoproteins A-I, C-II, C-III, and E by immunoelectrophoresis, and percent weight gain.
The five compounds were tested in two separate experiments. In each experiment, the experimental data were normalized against a control group of rats which received the dosing vehicle alone.

[2] = system: chow fed obese female Zucker rats; assay: Experiments B, C, D, E: serum lipids, glucose, insulin, body and liver weight in obese female Zucker rats, 14 days; type: in vivo, rat; conditions: for Body Weight Gain (% of Pretreatment) / HDL-Cholesterol (% of Pretreatment) / Non HDL-Cholesterol (% of Pretreatment) / Triglycerides (% of Pretreatment): 14 days
Description: In a number of different experiments, illustrative compounds of the invention and troglitazone were administered daily at various doses to 10-week old chow fed obese female Zucker rats for 14 days in the morning by oral gavage in 1.5% carboxymethylcellulose/0.2% Tween-20 (dosing vehicle). Animals were weighed daily. Animals were allowed free access to rodent chow and water throughout the study. Blood glucose was determined after a 6-hour fast in the afternoon without anesthesia from a tail vein. Serum was also prepared from a blood sample subsequently obtained from the orbital venous plexus (with O2/CO2 anesthesia) prior to and after one week treatment and used lipid and insulin determinations. At two weeks, blood glucose was again determined after a 6-hour fast without anesthesia from a tail vein. Soon thereafter, animals were sacrificed by CO2 inhalation in the evening and cardiac blood serum was collected and assessed for various lipids and insulin. Body weight was determined daily prior to dosing and at the time of euthanasia.

female obese Zucker rats = assay: Experiment A: serum lipids, glucose, non-esterified fatty acids and weight gain in obese female Zucker rats after seven days; type: in vivo, rat; conditions: 120 mg/kg
Description: Dosing vehicle, Compound A (86 mg/kg of body weight) or troglitazone (120 mg/kg of body weight) was administered to eight week old female obese Zucker rats daily for seven days in the morning by oral gavage in 1.5% carboxymethylcellulose/0.2% Tween-20. Troglitazone was obtained commercially. Finely crushed tablets were suspended in vehicle for dosing. Orbital blood samples were obtained following a six-hour fast prior to the initial dose and also following the seventh dose.
Blood serum was assayed for total cholesterol and triglycerides (FIG. 5), lipoprotein cholesterol profiles (FIG. 6), VLDL plus LDL cholesterol combined (also referred to as apo B containing lipoprotein cholesterol or non-HDL cholesterol), HDL cholesterol, and the ratio of HDL cholesterol to that of VLDL plus LDL cholesterol (FIG. 7), serum glucose, and non-esterified fatty acids (FIG. 8), and percent weight gain (FIG. 9). […] In particular, Compound A caused a marked elevation in HDL cholesterol after one week of treatment. Using the serum total cholesterol values (FIG. 5A) and the lipoprotein cholesterol distribution (FIG. 6), the amount of cholesterol associated with non-HDL (i.e., VLDL plus LDL) and HDL were determined (FIG. 7). […] In contrast, troglitazone reduced non-HDL and HDL cholesterol by 67% and 4%, respectively.

CC(C)(CCCOCCCC(C)(C)OP(=O)(OCc1ccccc1)OCc1ccccc1)OP(=O)(OCc1ccccc1)OCc1ccccc1 [Compound E, phosphoric acid dibenzyl ester 4-(4-(bis-benzyloxy-phosphoryloxy)-4-methyl-pentyloxy)-1,1-dimethyl-butyl ester]
rates of saponified fatty acid synthesis (primary rat hepatocytes): reduced the rates of saponified fatty acid synthesis
HDL-Cholesterol (% change) [1]: +49.1 % change
LDL-Cholesterol (% change) [1]: −41.0 % change
Triglyceride (% change) [1]: −30.5 % change

CC(C)(CCCOCCCC(C)(C)OP(=O)(O)O)OP(=O)([O-])[O-].[Na+].[Na+] [Compound D, phosphoric acid mono-(1,1-dimethyl-4-(4-methyl-4-phosphonooxy-pentyloxy)-butyl)ester sodium salt]
HDL-Cholesterol (% change) [1]: +13.3 % change
LDL-Cholesterol (% change) [1]: −17.0 % change
Triglyceride (% change) [1]: +28.0 % change

Cc1c(C)c2c(c(C)c1O)CCC(C)(COc1ccc(CC3SC(=O)NC3=O)cc1)O2 (stereo not drawn) [troglitazone, reference compound]
Body Weight Gain (% of Pretreatment) ([2]; Experiment B, 120 mg/kg/day): +21.7 % of Pretreatment
HDL-Cholesterol (% of Pretreatment) ([2]; Experiment B, 120 mg/kg/day): +44.2 % of Pretreatment
Non HDL-Cholesterol (% of Pretreatment) ([2]; Experiment B, 120 mg/kg/day): −44.0 % of Pretreatment
Triglycerides (% of Pretreatment) ([2]; Experiment B, 120 mg/kg/day): −76.6 % of Pretreatment
Body Weight Gain (% of Pretreatment) ([2]; Experiment C, 12 mg/kg/day): +20.2 % of Pretreatment
HDL-Cholesterol (% of Pretreatment) ([2]; Experiment C, 12 mg/kg/day): +1.9 % of Pretreatment
Non HDL-Cholesterol (% of Pretreatment) ([2]; Experiment C, 12 mg/kg/day): −10.6 % of Pretreatment
Triglycerides (% of Pretreatment) ([2]; Experiment C, 12 mg/kg/day): +10.7 % of Pretreatment
Body Weight Gain (% of Pretreatment) ([2]; Experiment C, 40 mg/kg/day): +21.2 % of Pretreatment
HDL-Cholesterol (% of Pretreatment) ([2]; Experiment C, 40 mg/kg/day): +36.1 % of Pretreatment
Non HDL-Cholesterol (% of Pretreatment) ([2]; Experiment C, 40 mg/kg/day): −50.5 % of Pretreatment
Triglycerides (% of Pretreatment) ([2]; Experiment C, 40 mg/kg/day): −59.6 % of Pretreatment
HDL increase ([2]; Experiment C, 120 mg/kg dose): 122%
Body Weight Gain (% of Pretreatment) ([2]; Experiment C, 120 mg/kg/day): +25.5 % of Pretreatment
HDL-Cholesterol (% of Pretreatment) ([2]; Experiment C, 120 mg/kg/day): +122.4 % of Pretreatment
Non HDL-Cholesterol (% of Pretreatment) ([2]; Experiment C, 120 mg/kg/day): −67.5 % of Pretreatment
Triglycerides (% of Pretreatment) ([2]; Experiment C, 120 mg/kg/day): −79.2 % of Pretreatment
percent liver to body weight ([2]; Experiment C, all doses, after two weeks, FIG. 16): reduced at all doses
Body Weight Gain (% of Pretreatment) ([2]; Experiment D, 120 mg/kg/day): +13.8 % of Pretreatment
HDL-Cholesterol (% of Pretreatment) ([2]; Experiment D, 120 mg/kg/day): +41.3 % of Pretreatment
Non HDL-Cholesterol (% of Pretreatment) ([2]; Experiment D, 120 mg/kg/day): −51.0 % of Pretreatment
Triglycerides (% of Pretreatment) ([2]; Experiment D, 120 mg/kg/day): −65.9 % of Pretreatment
Body Weight Gain (% of Pretreatment) ([2]; Experiment E, 120 mg/kg/day): +14.4 % of Pretreatment
HDL-Cholesterol (% of Pretreatment) ([2]; Experiment E, 120 mg/kg/day): +47.9 % of Pretreatment
Non HDL-Cholesterol (% of Pretreatment) ([2]; Experiment E, 120 mg/kg/day): −67.4 % of Pretreatment
Triglycerides (% of Pretreatment) ([2]; Experiment E, 120 mg/kg/day): −69.4 % of Pretreatment
reduction of HDL cholesterol (female obese Zucker rats; one week): 4%
reduction of non-HDL cholesterol (female obese Zucker rats; one week): 67%
reduction of non-esterified fatty acids (female obese Zucker rats; one week): 65%
increase in weight gain (female obese Zucker rats; seven days, vehicle 6.6%): +11.6%

CC(C)(CCCCOCCCCC(C)(C)OP(=O)(O)O)OP(=O)([O-])[O-].[Na+].[Na+] [Compound B, phosphoric acid mono-(1,1-dimethyl-5-(5-methyl-5-phosphonooxy-hexyloxy)-pentyl)ester sodium salt]
HDL-Cholesterol (% change) [1]: +40.7 % change
LDL-Cholesterol (% change) [1]: +23.2 % change
Triglyceride (% change) [1]: −31.1 % change
Body Weight Gain (% of Pretreatment) ([2]; Experiment B, 100 mg/kg/day): +12.0 % of Pretreatment
HDL-Cholesterol (% of Pretreatment) ([2]; Experiment B, 100 mg/kg/day): −23.3 % of Pretreatment
Non HDL-Cholesterol (% of Pretreatment) ([2]; Experiment B, 100 mg/kg/day): +257.1 % of Pretreatment
Triglycerides (% of Pretreatment) ([2]; Experiment B, 100 mg/kg/day): +24.6 % of Pretreatment

CC(C)(CCCCOCCCCC(C)(C)OP(=O)(OCc1ccccc1)OCc1ccccc1)OP(=O)(OCc1ccccc1)OCc1ccccc1 [Compound C, phosphoric acid dibenzyl ester 5-(5-(bis-benzyloxy-phosphoryloxy)-5-methyl-hexyloxy)-1,1-dimethyl-pentyl ester]
HDL-Cholesterol (% change) [1]: +11.6 % change
LDL-Cholesterol (% change) [1]: −4.0 % change
Triglyceride (% change) [1]: +32.6 % change

CC(C)(O)CCCCOCCCCC(C)(C)O [Compound F, 6-(5-hydroxy-5-methyl-hexyloxy)-2-methyl-hexan-2-ol]
rates of saponified fatty acid synthesis (primary rat hepatocytes): reduced the rates of saponified fatty acid synthesis
